Experiment [1] deals with Vibrio alginolyticus. Kind of experiment: Antimicrobial activity against Vibrio alginolyticus ATCC 17749 at 0.2 ug/disk after 24 hrs by paper disk method. In kind it is functional. As to conditions: ATCC 17749, 24 h, read-out: IZ.
Experiment [2] deals with Umbelopsis ramanniana. Kind of experiment: Antimicrobial activity against Mortierella ramanniana at 0.2 ug/disk after 24 hrs by paper disk method. In kind it is functional. Particulars: read-out: IZ.

Regarding `CC(C)CCCC(C)COS(=O)(=O)O` (stereo not drawn), the zone of inhibition at 0.2 µg/disc amounted to 12 mm in experiment [1] and 10 mm in experiment [2].

For `CC/C=C\C/C=C\CCCOS(=O)(=O)O`, the zone of inhibition at 0.2 µg/disc in experiment [1] stood at 12 mm; in experiment [2] it was 10 mm.

For the compound `CC/C=C/C/C=C\CCCOS(=O)(=O)O`, the zone of inhibition at 0.2 µg/disc was 12 mm in experiment [1] and 10 mm in experiment [2].

Consider `C=CC/C=C\C/C=C\CCOS(=O)(=O)O`, for which the zone of inhibition at 0.2 µg/disc in experiment [1] was found to be 12 mm; in experiment [2], 10 mm.
